Measurements taken from patent US20100267561A1, “HERBICIDAL PYRIDAZINONE DERIVATIVES” (priority 2007, published 2010).

How the values were obtained:
Format in all cases: in vivo
[1] = tested on: ducksalad (Heteranthera limosa); experiment: Test B flooded paddy test plant response
Outline: (§1)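 Compounds were added directly to paddy water over 2-leaf-stage plants in pots flooded 3 cm above soil, water depth maintained. Visual injury scored against controls after 13 to 15 days in greenhouse, 0 (none) to 100 (complete control); dash indicates no result.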

rice (Oryza sativa) = experiment: Test B flooded paddy test plant response
Outline: as §1

[2] = tested on: barnyardgrass (Echinochloa crus-galli); experiment: Test B flooded paddy test plant response
Outline: as §1

[3] = tested on: umbrella sedge (Cyperus difformis); experiment: Test B flooded paddy test plant response
Outline: as §1

[4] = tested on: Russian thistle (Salsola iberica); experiment: Test B pre-/postemergence plant response; details: Preemergence; for Russian Thistle plant response rating: scale 0 to 100
Outline: (§2)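 Visual scoring from 0 (no effect) to 100 (complete control) against untreated controls was done 13 to 15 days after greenhouse treatment. Chemicals were formulated in a surfactant-containing non-phytotoxic solvent and applied to soil preemergence or to 1- to 4-leaf (2-18 cm) plants postemergence.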

[5] = tested on: downy bromegrass (Bromus tectorum); experiment: Test B pre-/postemergence plant response; details: for Bromegrass, Downy plant response rating: 8 g ai/ha
Outline: as §2

[6] = tested on: large crabgrass (Digitaria sanguinalis); experiment: Test B pre-/postemergence plant response
Outline: as §2

[7] = tested on: green foxtail (Setaria viridis); experiment: Test B pre-/postemergence plant response
Outline: as §2

[8] = tested on: pigweed (Amaranthus retroflexus); experiment: Test B pre-/postemergence plant response
Outline: as §2

corn (Zea mays) = experiment: Test B pre-/postemergence plant response
Outline: as §2

[9] = tested on: giant foxtail (Setaria faberii); experiment: Test B pre-/postemergence plant response
Outline: as §2

wild oat (Avena fatua) = experiment: Test B pre-/postemergence plant response
Outline: as §2

[10] = tested on: eastern black (E.B.) nightshade (Solanum ptycanthum); experiment: Test B pre-/postemergence plant response; details: Preemergence; for Nightshade, E. B. plant response rating: scale 0 to 100
Outline: as §2

[11] = tested on: woolly cupgrass (Eriochloa villosa); experiment: Test B pre-/postemergence plant response
Outline: as §2

[12] = Flood (flooded paddy test), 62 g ai/ha, scale 0 to 100, 0 no effect, 100 complete control
[13] = Flood (flooded paddy test), 125 g ai/ha, scale 0 to 100, 0 no effect, 100 complete control
[14] = Flood (flooded paddy test), 250 g ai/ha, scale 0 to 100, 0 no effect, 100 complete control
[15] = Flood, 31 g ai/ha, scale 0 to 100
[16] = 31 g ai/ha, scale 0 to 100 (0 no effect, 100 complete control)
[17] = 62 g ai/ha, 0 to 100 scale, 0 no effect, 100 complete control
[18] = Postemergence, 16 g ai/ha, scale 0 to 100
[19] = Postemergence, 31 g ai/ha, scale 0 to 100
[20] = Postemergence, 62 g ai/ha, scale 0 to 100, 0 no effect, 100 complete control
[21] = Preemergence, 31 g ai/ha, scale 0 to 100 (0 no effect, 100 complete control)
[22] = Preemergence, 62 g ai/ha, 0 to 100 scale, 0 no effect, 100 complete control
[23] = 8 g ai/ha, postemergence, 0-100 scale
[24] = Preemergence, 8 g ai/ha, scale 0 to 100
[25] = Preemergence, 16 g ai/ha, scale 0 to 100
[26] = 16 g ai/ha, postemergence, 0-100 scale

SMILES: Cc1cc(-c2ccc(Cl)cc2)nn1-c1c(OC(=S)N(C)C)cnn(C)c1=O [Compound 69]
- Plant response rating, Ducksalad [1, 12]: 0
- Plant response rating, Ducksalad [1, 13]: 0
- Plant response rating, Ducksalad [1, 14]: 0
- Plant response rating, Ducksalad [1, 15]: 0
- Plant response rating, Rice (rice (Oryza sativa); [12]): 0
- Plant response rating, Rice (rice (Oryza sativa); [13]): 0
- Plant response rating, Rice (rice (Oryza sativa); [14]): 0
- Plant response rating, Rice (rice (Oryza sativa); [15]): 0
- Plant response rating, Barnyardgrass [2, 12]: 0
- Plant response rating, Barnyardgrass [2, 13]: 0
- Plant response rating, Barnyardgrass [2, 14]: 0
- Plant response rating, Barnyardgrass [2, 15]: 0
- Plant response rating, Sedge, Umbrella [3, 12]: 0
- Plant response rating, Sedge, Umbrella [3, 13]: 0
- Plant response rating, Sedge, Umbrella [3, 14]: 0
- Plant response rating, Sedge, Umbrella [3, 15]: 0
- Plant response rating, Russian Thistle [4, 16]: 0
- Plant response rating, Russian Thistle [4, 17]: 0
- Russian Thistle plant response rating ([4]; 8 g ai/ha): 0
- Russian Thistle plant response rating ([4]; 16 g ai/ha): 0
- Bromegrass, Downy plant response rating ([5]; postemergence, 0-100 scale): 0
- Plant response rating, Bromegrass, Downy [5, 18]: 0
- Plant response rating, Bromegrass, Downy [5, 19]: 15
- Plant response rating, Bromegrass, Downy [5, 20]: 45
- Plant response rating, Bromegrass, Downy ([5]; Preemergence, 16 g ai/ha, scale 0 to 100 (0 no effect, 100 complete control)): 0
- Plant response rating, Bromegrass, Downy [5, 21]: 0
- Plant response rating, Bromegrass, Downy [5, 22]: 0
- Bromegrass, Downy plant response rating ([5]; Preemergence, scale 0 to 100): 0
- Crabgrass, Large plant response rating [6, 23]: 55
- Plant response rating, Crabgrass, Large [6, 18]: 75
- Plant response rating, Crabgrass, Large [6, 19]: 98
- Plant response rating, Crabgrass, Large [6, 20]: 100
- Plant response rating, Crabgrass, Large [6, 21]: 0
- Plant response rating, Crabgrass, Large [6, 22]: 0
- Crabgrass, Large plant response rating [6, 24]: 0
- Crabgrass, Large plant response rating [6, 25]: 0
- Foxtail, Green plant response rating [7, 23]: 60
- Plant response rating, Foxtail, Green [7, 18]: 80
- Plant response rating, Foxtail, Green [7, 19]: 90
- Plant response rating, Foxtail, Green [7, 20]: 95
- Plant response rating, Foxtail, Green [7, 21]: 40
- Plant response rating, Foxtail, Green [7, 22]: 100
- Foxtail, Green plant response rating [7, 24]: 0
- Foxtail, Green plant response rating [7, 25]: 0
- Pigweed plant response rating [8, 23]: 0
- Pigweed plant response rating [8, 26]: 0
- Plant response rating, Pigweed [8, 19]: 0
- Plant response rating, Pigweed [8, 20]: 0
- Plant response rating, Pigweed [8, 21]: 0
- Plant response rating, Pigweed [8, 22]: 0
- Pigweed plant response rating [8, 24]: 0
- Pigweed plant response rating [8, 25]: 0
- Corn plant response rating (corn (Zea mays); [23]): 0
- Plant response rating, Corn (corn (Zea mays); [18]): 0
- Plant response rating, Corn (corn (Zea mays); [19]): 0
- Plant response rating, Corn (corn (Zea mays); [20]): 20
- Plant response rating, Corn (corn (Zea mays); [21]): 0
- Plant response rating, Corn (corn (Zea mays); [22]): 0
- Corn plant response rating (corn (Zea mays); [24]): 0
- Corn plant response rating (corn (Zea mays); [25]): 0
- Foxtail, Giant plant response rating [9, 23]: 60
- Plant response rating, Foxtail, Giant [9, 18]: 85
- Plant response rating, Foxtail, Giant [9, 19]: 100
- Plant response rating, Foxtail, Giant [9, 20]: 100
- Plant response rating, Foxtail, Giant [9, 21]: 0
- Plant response rating, Foxtail, Giant [9, 22]: 0
- Foxtail, Giant plant response rating [9, 24]: 0
- Foxtail, Giant plant response rating [9, 25]: 0
- Oat, Wild plant response rating (wild oat (Avena fatua); [23]): 20
- Oat, Wild plant response rating (wild oat (Avena fatua); [26]): 40
- Plant response rating, Oat, Wild (wild oat (Avena fatua); [19]): 90
- Plant response rating, Oat, Wild (wild oat (Avena fatua); [20]): 90
- Plant response rating, Oat, Wild (wild oat (Avena fatua); [21]): 20
- Plant response rating, Oat, Wild (wild oat (Avena fatua); [22]): 40
- Oat, Wild plant response rating (wild oat (Avena fatua); [24]): 0
- Oat, Wild plant response rating (wild oat (Avena fatua); [25]): 0
- Plant response rating, Nightshade, E. B. [10, 16]: 0
- Plant response rating, Nightshade, E. B. [10, 17]: 0
- Nightshade, E. B. plant response rating ([10]; 8 g ai/ha): 0
- Nightshade, E. B. plant response rating ([10]; 16 g ai/ha): 0
- Cupgrass, Woolly plant response rating [11, 23]: 20
- Plant response rating, Cupgrass, Woolly [11, 18]: 90
- Plant response rating, Cupgrass, Woolly [11, 19]: 95
- Plant response rating, Cupgrass, Woolly [11, 20]: 100
- Plant response rating, Cupgrass, Woolly [11, 21]: 0
- Plant response rating, Cupgrass, Woolly [11, 22]: 85
- Cupgrass, Woolly plant response rating [11, 24]: 0
- Cupgrass, Woolly plant response rating [11, 25]: 0
